Test results published in patent publication US7964573B2, “Regulating expression of transient receptor potential channel genes” (The Regents of the University of California, priority 2005, dated 2011).
“Also recorded” adds a separate entry of the source.

Assays:
[1] = tested on: TRPC6; assay: siRNA suppression of TRPC6 protein and mRNA levels in COS-7 cells; format: cell-based
From the text: (§1) In separate experiments, siRNA was used to prevent expression and translation of the TRPC6 gene in vitro. Several fragments of open reading frames in the TRPC6 gene were identified which suppressed expression of TRPC6 protein and mRNA levels. […] A scrambled siRNA vector served as a non-silencing control.

[2] = tested on: TRPC6; assay: TRPC6 mRNA and protein expression in IPAH-PASMC after siRNA transfection (RT-PCR, Western blot); format: cell-based, human; conditions: for TRPC6 protein expression: IPAH-PASMC, transfected
Description: (§2) Another aspect relates to the use of siRNA to inhibit the expression of TRPC6 gene. Human PASMC were isolated and cultured from normal subjects (normal PASMC) and subjects with IPAH (IPAH-PASMC). Levels of canonical TRP (TRPC) isoforms (mRNA and protein) were measured using RT-PCR and Western blot analysis. In addition, levels of TRPC6 in vivo were measured and compared with levels of Ki67, a nuclear protein expressed during S and G2/M phase of the cell cycle, using in situ immunofluorescence staining of proliferating PASMC (see Kuga et al. (1996) Circ. Res. 79:14-19). Cell cycle phase was determined by BrdU uptake and by [^3H]-thymidine incorporation into DNA. PASMC were incubated with [^3H]-thymidine for 16 hours following 24 hours of growth arrest and 48 hours of growth induction and measuring percent extent of radiolabel incorporation into precipitated DNA.
as §1

[3] = tested on: IPAH-PASMC; assay: [3H]-thymidine incorporation (proliferation) in IPAH-PASMC; format: cell-based, human; conditions: proliferating IPAH-PASMC, transfected
Description: as §2, §1

TRPC6 siRNA-2: siRNA against the TRPC6 gene, sequence AAGGTCTTTATGCAATTGCTG (SEQ ID NO: 5) (listed as DNA, chemistry not given here)
suppression of expression of TRPC6 protein and mRNA levels [1]: most effective | TRPC6 protein expression [2]: significantly decreased; also recorded: attenuates | TRPC6 protein expression ([2]; listed as TRPC6 siRNA (SEQ ID NO: 5)): significantly inhibits | TRPC6 mRNA expression level ([2]; PASMC from patients with IPAH): significantly inhibits | [3H]-thymidine incorporation (proliferation) ([3]; listed as TRPC6-siRNA): markedly attenuated | [3H]-thymidine incorporation (proliferation) ([3]; listed as TRPC6 siRNA): significantly decreased; also recorded: attenuates
